Source: patent publication US5593985A, “Cephalosporin compounds” (priority 1994, dated 1997)
≈ marks a conversion by molar mass, not a printed value.

What was measured:
Format in all cases: cell-based
[1] = tested on: Streptococcus pyogenes A 77; experiment: MIC, standard strain 2; conditions: A77, S. pyogenes A 77, two-fold dilution, Muller Hinton agar, 10^7 CFU/ml, 37° C., 18 hours, read-out: Minimal Inhibitory Concentration(MIC)
Experimental: (§1) In order to illustrate antibiotic effectiveness of the compounds of the present invention, the minimal inhibitory concentrations (MIC's) of the representative compounds were determined against standard strains and compared with ceftazidime and cefpirome, which were used as control compounds.
(§2) The MIC values were taken by employing a two-fold dilution method: that is, two-fold serial dilutions of each of the test compounds were made from initial concentration of […]; each 1.5 ml of them was dispersed in 13.5 ml of Muller Hinton agar medium to adjust to […]; the standard test strain which had the concentration of 10^7 CFU/ml was inoculated by medium;and these were incubated at 37° C. for 18 hours.
(§3) The test used twenty kinds of standard test strains which induced urinary tract infections, respiratory organ infections, skin soft tissue infections, plasma infections, gastrointestinal infections, central nervous system infections, most of which produce β-lactamase. The standard test strains used are as follows:
2. Streptococcus pyogenes A 77

[2] = tested on: Staphylococcus aureus 285; experiment: MIC, standard strain 5; conditions: Staphylococcus aureus; S. aureus 285; two-fold dilution, Muller Hinton agar, 10^7 CFU/ml, 37° C., 18 hours; read-out: Minimal Inhibitory Concentration(MIC)
Experimental: as §1, §2, §3
5. Staphylococcus aureus 285

[3] = tested on: Staphylococcus aureus 503; experiment: MIC, standard strain 6; conditions: Staphylococcus aureus; S. aureus 503; two-fold dilution, Muller Hinton agar, 10^7 CFU/ml, 37° C., 18 hours; read-out: Minimal Inhibitory Concentration(MIC)
Experimental: as §1, §2, §3
6. Staphylococcus aureus 503

Escherichia coli 0 55 = experiment: MIC, standard strain 7; conditions: 055, E. coli 0 55, two-fold dilution, Muller Hinton agar, 10^7 CFU/ml, 37° C., 18 hours, read-out: Minimal Inhibitory Concentration(MIC)
Experimental: as §1, §2
(§4) The test used twenty kinds of standard test strains which induced urinary tract infections, respiratory organ infections, skin soft tissue infections, plasma infections, gastrointestinal infections, central nervous system infections, most of which produce β-lactamase.

Escherichia coli DC 0 = experiment: MIC, standard strain 8; conditions: DC0, E. coli DC 0, two-fold dilution, Muller Hinton agar, 10^7 CFU/ml, 37° C., 18 hours, read-out: Minimal Inhibitory Concentration(MIC)
Experimental: as §1, §2, §4

Escherichia coli DC 2 = experiment: MIC, standard strain 9; conditions: DC2, E. coli DC 2, two-fold dilution, Muller Hinton agar, 10^7 CFU/ml, 37° C., 18 hours, read-out: Minimal Inhibitory Concentration(MIC)
Experimental: as §1, §2, §4

Escherichia coli TEM = experiment: MIC, standard strain 10; conditions: 18 h, read-out: Minimal Inhibitory Concentration(MIC)
Experimental: as §1, §2, §4

Escherichia coli 1507 E = experiment: MIC, standard strain 11; conditions: E. coli 1507 E, two-fold dilution, Muller Hinton agar, 10^7 CFU/ml, 37° C., 18 hours, read-out: Minimal Inhibitory Concentration(MIC)
Experimental: as §1, §2, §4

[4] = tested on: Pseudomonas aeruginosa 1592 E; experiment: MIC, standard strain 13; conditions: P. aeruginosa 1592 E, two-fold dilution, Muller Hinton agar, 10^7 CFU/ml, 37° C., 18 hours, read-out: Minimal Inhibitory Concentration(MIC)
Experimental: as §1, §2, §3
13. Pseudomonas aeruginosa 1592 E

[5] = tested on: Pseudomonas aeruginosa 1771M; experiment: MIC, standard strain 15; conditions: 18 h, read-out: Minimal Inhibitory Concentration(MIC)
Experimental: as §1, §2, §3
15. Pseudomonas aeruginosa 1771M

Salmonella typhimurium = experiment: MIC, standard strain 16; conditions: Salmonella enterica; S. typhimurium; two-fold dilution, Muller Hinton agar, 10^7 CFU/ml, 37° C., 18 hours; read-out: Minimal Inhibitory Concentration(MIC)
Experimental: as §1, §2, §3
16. Salmonella typhimurium

[6] = tested on: Klebsiella aerogenes 1552 E; experiment: MIC, standard strain 18; conditions: K. aerogenes 1552 E, two-fold dilution, Muller Hinton agar, 10^7 CFU/ml, 37° C., 18 hours, read-out: Minimal Inhibitory Concentration(MIC)
Experimental: as §1, §2, §3
18. Klebsiella aerogenes 1552 E

Enterobactercloacas = experiment: MIC, clinically separated strains; conditions: Enterobacter cloacae, 18 h, 20 clinical strains
Experimental: as §2

Enterococcus II = experiment: MIC, clinically separated strains; conditions: 18 h
Experimental: as §2

Morganella morganii = experiment: MIC, clinically separated strains; conditions: 18 h
Experimental: as §2

Proteus mirabilis = experiment: MIC, clinically separated strains; conditions: 18 h
Experimental: as §2

Proteus vulgaris = experiment: MIC, clinically separated strains; conditions: 18 h
Experimental: as §2

Pseudomonas II = experiment: MIC, clinically separated strains; conditions: 18 h
Experimental: as §2

Pseudomonas I = experiment: MIC, clinically separated strains; conditions: 18 h
Experimental: as §2

Pseudomonas aeruginosa = experiment: MIC, clinically separated strains; conditions: 18 h
Experimental: as §2

Serratia spp = experiment: MIC, clinically separated strains; conditions: 18 h
Experimental: as §2

Streptococcus II = experiment: MIC, clinically separated strains; conditions: 18 h
Experimental: as §2

MRSA(Yonsei Univ.) = experiment: MIC, clinically separated strains
Experimental: as §2

Streptococcus I = experiment: MIC, clinically separated strains; conditions: Streptococcus, 18 h; 20 clinical strains
Experimental: as §2

[7] = read-out: range of MIC, 20 clinical strains
[8] = read-out: range of MIC, 5 clinical strains
[9] = Staphylococcus aureus, MRSA, 18 h, 17 clinical strains

Structure (SMILES): CO/N=C(\C(=O)N[C@@H]1C(=O)N2C(C(=O)[O-])=C(C[n+]3cccc4c3CCC4)CS[C@H]12)c1csc(N)n1 [cefpirome, reference compound]
- MIC [1]: 98 µg/mL (≈ 190 µM)
- MIC [2]: 781 µg/mL (≈ 1520 µM)
- MIC [3]: 13 µg/mL (≈ 25.3 µM)
- MIC (Escherichia coli 0 55): 13 µg/mL (≈ 25.3 µM)
- MIC (Escherichia coli DC 0): 49 µg/mL (≈ 95.2 µM)
- MIC (Escherichia coli DC 2): 49 µg/mL (≈ 95.2 µM)
- MIC (Escherichia coli TEM): 49 µg/mL (≈ 95.2 µM)
- MIC (Escherichia coli 1507 E): 75 µg/mL (≈ 146 µM)
- MIC [4]: 1560 µg/mL (≈ 3040 µM)
- MIC [5]: 195 µg/mL (≈ 379 µM)
- MIC (Salmonella typhimurium): 25 µg/mL (≈ 48.6 µM)
- MIC [6]: 25 µg/mL (≈ 48.6 µM)
- MIC (Enterobactercloacas; read-out: range of MIC): 0.013 to 1.56 µg/mL (≈ 0.0253 to 3.04 µM)
- MIC50 (Enterobactercloacas): 0.025 µg/mL (≈ 0.0486 µM)
- MIC90 (Enterobactercloacas): 0.098 µg/mL (≈ 0.19 µM)
- MIC50 (Enterococcus II; 20 clinical strains): 0.049 µg/mL (≈ 0.0952 µM)
- MIC90 (Enterococcus II; 20 clinical strains): 1.56 µg/mL (≈ 3.04 µM)
- MIC (Enterococcus II; [7]): 0.007 to 3.12 µg/mL (≈ 0.0136 to 6.07 µM)
- MIC50 (Morganella morganii; 5 clinical strains): 0.013 µg/mL (≈ 0.0253 µM)
- MIC90 (Morganella morganii; 5 clinical strains): 0.025 µg/mL (≈ 0.0486 µM)
- MIC (Morganella morganii; [8]): 0.013 to 0.025 µg/mL (≈ 0.0253 to 0.0486 µM)
- MIC50 (Proteus mirabilis; 4 clinical strains): 0.013 µg/mL (≈ 0.0253 µM)
- MIC90 (Proteus mirabilis; 4 clinical strains): 0.049 µg/mL (≈ 0.0952 µM)
- MIC (Proteus mirabilis; read-out: range of MIC, 4 clinical strains): 0.007 to 0.049 µg/mL (≈ 0.0136 to 0.0952 µM)
- MIC50 (Proteus vulgaris; 5 clinical strains): 0.049 µg/mL (≈ 0.0952 µM)
- MIC90 (Proteus vulgaris; 5 clinical strains): 0.098 µg/mL (≈ 0.19 µM)
- MIC (Proteus vulgaris; [8]): 0.025 to 0.098 µg/mL (≈ 0.0486 to 0.19 µM)
- MIC50 (Pseudomonas II): 1.56 µg/mL (≈ 3.04 µM)
- MIC90 (Pseudomonas II): 6.25 µg/mL (≈ 12.1 µM)
- MIC (Pseudomonas II; read-out: range of MIC): 0.781 to 12.5 µg/mL (≈ 1.52 to 24.3 µM)
- MIC50 (Pseudomonas I): 1.56 µg/mL (≈ 3.04 µM)
- MIC90 (Pseudomonas I): 6.25 µg/mL (≈ 12.1 µM)
- MIC (Pseudomonas I; read-out: range of MIC): 0.781 to 12.5 µg/mL (≈ 1.52 to 24.3 µM)
- MIC50 (Pseudomonas aeruginosa; 20 clinical strains): 3.12 µg/mL (≈ 6.07 µM)
- MIC90 (Pseudomonas aeruginosa; 20 clinical strains): 12.5 µg/mL (≈ 24.3 µM)
- MIC (Pseudomonas aeruginosa; [7]): 0.781 to 12.5 µg/mL (≈ 1.52 to 24.3 µM)
- MIC50 (Serratia spp; 20 clinical strains): 0.049 µg/mL (≈ 0.0952 µM)
- MIC90 (Serratia spp; 20 clinical strains): 0.098 µg/mL (≈ 0.19 µM)
- MIC (Serratia spp; [7]): 0.025 to 0.049 µg/mL (≈ 0.0486 to 0.0952 µM)
- MIC50 (Streptococcus II; 17 clinical strains): 0.004 µg/mL (≈ 0.00777 µM)
- MIC90 (Streptococcus II; 17 clinical strains): 0.007 µg/mL (≈ 0.0136 µM)
- MIC (Streptococcus II; read-out: range of MIC, 17 clinical strains): 0.002 to 0.007 µg/mL (≈ 0.00389 to 0.0136 µM)
- antibiotic activities against MRSA(Yonsei Univ.), in words (MRSA(Yonsei Univ.)): shows resistance to cefpirome
- MIC (MRSA(Yonsei Univ.); Staphylococcus aureus, MRSA, 18 h, read-out: range of MIC, 17 clinical strains): 100 µg/mL (≈ 194 µM)
- MIC50 (MRSA(Yonsei Univ.); [9]): 100 µg/mL (≈ 194 µM)
- MIC90 (MRSA(Yonsei Univ.); [9]): 100 µg/mL (≈ 194 µM)
- MIC50 (Streptococcus I): 0.025 µg/mL (≈ 0.0486 µM)
- MIC90 (Streptococcus I): 12.5 µg/mL (≈ 24.3 µM)
